Results from patent US20210106567A1, “COMPOSITIONS AND METHODS FOR INHIBITING CARP-1 BINDING TO NEMO” (United States Government As Represented By The Department …, priority 2019, published 2021).

Assays:
[1] = target: T1, Flag-CARP-1 (546-580) binding with Biotin-NEMO (221-261) (Homo sapiens, UniProt Q8IX12); experiment: AlphaLISA assay of CARP-1/NEMO peptide binding (HTS format); details: biphasic, read-out: IC50, inhibition of binding of CARP-1 (546-580) with NEMO (221-261) peptide
T1 construct: Flag-tagged CARP-1 (546-580); purchased Peptides America, Fairfax, Va; host or cells: chemical synthesis
Excerpt: The predicted kinetics of interaction of CARP-1 (551-600; SEQ ID NO: 5) and NEMO (221-261; SEQ ID NO: 2) epitopes was further validated by utilizing respective, chemically synthesized peptides to determine their in-solution binding by SPR technology (Sekhar et al. (2019) Cancers (Basel) 11). […] On the collective basis of the data in FIG. 1, and biophysical and SPR data above, in vitro binding assays were developed utilizing chemically synthesized CARP-1 and NEMO peptides. In the first instance, CARP-1 (551-580; SEQ ID NO: 6) and NEMO (221-261; SEQ ID NO: 2) peptides were used to carry out buffer optimization and DMSO tolerance of the assay. […] Presence of 0.01% tween minimizes non-specific binding and generates higher reproducibility as noted by smaller error bars in FIG. 15A. […]
The AlphaLISA assay for high throughput screening: For screening of a library of chemical compounds, an […] assay was developed and optimized for use in 384-well format (SAMDI Tech, Chicago, Ill.). […] The assay signal (Fluorescence) was measured at 680 nm excitation and 615 nm emission wavelengths to determine assay robustness and DMSO tolerance. […] The plates were read on a Pherastar FS plate reader. […] Those wells were further analyzed to investigate the 8 compounds individually in duplicate.

[2] = test system: murine TNBC cells; experiment: Cytokine ELISA of culture media; type: cell-based; details: single agent
[3] = test system: 4T1 TNBC cells; experiment: MTT cell viability; type: cell-based, murine; details: Mus musculus, 72 h
Experimental: (§2) The murine TNBC cell line 4T1 that was derived from a spontaneously arising BALB/c mammary tumor were obtained from the Karmanos Cancer Institute (KCl), and were maintained in culture (Cheriyan et al. (2016) Oncotarget 7, 73370-73388). […] The cell culture media were also supplemented with 10% FBS, 100 units/ml of penicillin, and 100 μg/ml of streptomycin, and the cells were maintained at 37° C. and 5% CO2. For cell growth and MTT studies, the cells were cultured in fresh media with 5%-10% FBS prior to their treatments with various agents.
(§3) Cell Viability, Immunoprecipitation and Western Blot assays: 500-1000 cells were seeded in each well of 96 well plate and then either untreated (control) or treated with various agents for noted times. After treatment, MTT reagent was added at 0.5 mg/ml concentration for 2-4 hours at 37° C. DMSO was added to solubilize formazan and the plate was read at 570 nm in a plate reader. The histograms indicating levels of cell viability were generated by plotting the net absorbances (Rishi et al. (2003) J Biol Chem 278, 33422-33435; and Rishi et al. (2006) J Biol Chem 281, 13188-13198).

[4] = MTT cell viability; type: cell-based, murine; details: mouse, 4T1 TNBC cells; 1.0, 2.5, 5.0, or 10.0 μM over 24 h; read-out: loss of viability
Experimental: as §2, §3

[5] = target: T2, His-TAT-HA-CARP-1 (551-580) binding with Gst-NEMO (221-261) (Homo sapiens, UniProt Q8IX12); experiment: Pull-down and Western blot with E. coli expressed peptides; details: then washed
T2 construct: His-TAT-HA-CARP-1 (551-580); made in house; host or cells: E. coli BL21
Experimental: The biochemical mechanism of inhibition of CARP-1 (551-580; SEQ ID NO: 6) binding with NEMO (221-261; SEQ ID NO: 2) by SNI-1 was assessed. E. coli expressed Gst-NEMO (221-261; SEQ ID NO: 2) and His-TAT-HA-CARP-1 (551-580; SEQ ID NO: 6) peptides in IP-WB assays were used. […] Since Adriamycin activates ATM to regulate canonical NF-κB and DSB repair pathways, it remains to be clarified whether CARP-1 regulates RIPK1 signaling dependent and/or independent of ATM.
(§1) The cells were lysed to prepare protein extracts.

[6] = test system: cleaved RIPK1; experiment: Western blot for RIPK1 cleavage; type: cell-based
Excerpt: as §1

[7] = test system: MDR1; experiment: Levels of drug efflux pump MDR1; type: cell-based, human; details: MDA-MB-468 cells
Excerpt: Of note is that SNI-1 in combination with Adriamycin provoked a greater inhibition of tumor growth when compared with the tumor growth inhibition noted in animals treated with either agent alone. […] Since TNBCs and many other cancers are often known to express drug efflux pumps that contribute to lower efficacy of drugs in clinic and development of drug-resistant tumors, it is likely that the presence/expression of these drug efflux pumps function in part to interfere with a robust anti-tumor response to a combination of SNI-1 and Adriamycin.

[8] = test system: parental and chemo-resistant human and murine TNBC cells and parental renal cancer cells; experiment: Cytokine ELISA of culture media, chemotherapy-induced secretion; type: cell-based; details: SNI-1 with Adriamycin or Cisplatin
[9] = test system: MDA-MB-468 TNBC cells; experiment: MTT cell viability, SNI-1 analogs; type: cell-based, human; details: 24 h
Experimental: FIGS. 22A-B show SNI-1 analogs enhance Adriamycin inhibition of TNBC cell growth. FIGS. 22A-B show cells treated with indicated dose of noted agent for 24 h, and their viabilities determined by MTT assay. Columns represent means of three independent experiments; bars, SE.
MDA-MB-468 TNBC cells were next treated with each of the analog in vitro as a single agent or in combination with Adriamycin in vitro.

T2 sequence (Q8IX12 551-580 limits assumed): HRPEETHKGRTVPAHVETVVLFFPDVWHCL
T1 sequence (Q8IX12 546-580 limits assumed): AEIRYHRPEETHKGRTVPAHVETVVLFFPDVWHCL

## Cc1ccc(-n2nnnc2SCC(=O)c2ccc(O)c(O)c2)cc1 [SNI-1, 1-(3,4-dihydroxyphenyl)-2-{(1-(4-methylphenyl)-1H-tetrazol-5-yl)thio}ethanone]
[1]
  IC50: ~300 nM
[2]
  secretion of TNFα and IL-1β: failed to cause increase
[3]
  IC50: 4000 to 4500 nM
[4]
  cytotoxicity at 24 h: 10 to 20%
[5]; compound incubated with CARP-1 peptide immobilized on Ni-NTA beads
  binding of Gst-NEMO (221-261) with His-TAT-HA-CARP-1 (551-580) peptide: abrogated binding
[5]; compound incubated with Gst-NEMO peptide immobilized on Gst sepharose beads
  binding of His-TAT-HA-CARP-1 (551-580) with Gst-NEMO (221-261) peptide: failed to abrogate binding
[6]
  expression of cleaved RIPK1: induced expression of cleaved RIPK1
[7]
  levels of drug efflux pump MDR1: robust increase
[8]
  secretion of chemotherapy-induced TNFα, IL-8, and IL-1β: robust decline in secretion
[9]
  loss of cell viability in combination with Adriamycin versus Adriamycin alone: greater loss of cell viability
